Test results from ChEMBL document CHEMBL4483862, “Open-source discovery of chemical leads for next-generation chemoprotective antimalarials” (2018).

Tested on: Plasmodium berghei
Assay: Luciferase/luciferin-expressing antifolate-resistant parasites were used to infect a culture of HepG2 cells that were pre-incubated with compounds. Infected hepatocytes emit light due to the luciferase reaction. Assay results are presented as the percent inhibition of light emission compared to control. […]
Format: functional
Details: sporozoite; for IC90: read-out: LUCIFERASE INFECTION ASSAY - IC90
[1] = read-out: LUCIFERASE INFECTION ASSAY - IC50

Compound: O=C1N=C(N2CCCCC2)S/C1=C(/C=C(CC(=O)c1ccccc1)c1ccccc1)c1ccccc1
- IC50 [1]: > 6.7 µM
- IC90: > 6.7 µM

Compound: CCCC(=O)Nc1ccc(C(=O)C(C)SC2=NN/C(=C3\C=Nc4ccccc43)N2c2ccc(OCC)cc2)cc1 (centres undefined)
- IC50 (PBLUC_HILL_SLOPE 9.99, PBLUC_R_SQUARED 0.53, read-out: LUCIFERASE INFECTION ASSAY - IC50): 8.08 µM
- IC90: > 10 µM

Compound: CCn1c(-c2ccccc2)c(C(=O)COc2ccccc2OC)c2ccccc21
- IC50 [1]: > 10 µM
- IC90: > 10 µM

Compound: C/C=C/c1ccc(OCC(=O)NCc2ccc(S(N)(=O)=O)cc2)c(OC)c1
- IC50 [1]: > 10 µM
- IC90: > 10 µM

Compound: Cc1nn(Cc2ccccc2Cl)c(Cl)c1/C=C/C(=O)OC(C)C(=O)N1CCCc2ccccc21 (centres undefined)
- IC50 [1]: > 10 µM
- IC90: > 10 µM

Compound: O=C(O)c1cc(N/N=C(\c2ccncc2)c2ccc([N+](=O)[O-])cc2)cc(C(=O)O)c1
- IC50 [1]: > 10 µM
- IC90: > 10 µM

Compound: COc1cc(Nc2cc3c(cn2)cc(-c2cnn(C)c2)n3Cc2ccccc2)cc(OC)c1OC
- IC50 [1]: 3.03 µM
- IC90: 3.72 µM

Compound: FC(F)(F)c1ccc2nc(SCc3nc(-c4ccc(Cl)cc4)no3)[nH]c2c1
- IC50 [1]: > 8.03 µM
- IC90: > 8.03 µM

Compound: CC(NC(=O)COC(=O)COc1ccc2c(c1)CCC(=O)N2)c1ccco1 (centres undefined)
- IC50 [1]: > 10 µM
- IC90: > 10 µM

Compound: CN(CCOc1ccc(Br)cc1)C(=O)c1[nH]nc2ccccc12
- IC50 (PBLUC_HILL_SLOPE 4.37, PBLUC_R_SQUARED 0.302, read-out: LUCIFERASE INFECTION ASSAY - IC50): 6.76 µM
- IC90: > 10 µM

Compound: O=C1C=C(c2ccccc2)C(=O)N1Nc1ccc(Cl)cc1Cl
- IC50 (HEPG2TOX_HILL_SLOPE 5.8, HEPG2TOX_R_SQUARED 0.44, PBLUC_HILL_SLOPE 7.31, PBLUC_R_SQUARED 0.6, read-out: LUCIFERASE INFECTION ASSAY - IC50): 9.05 µM
- IC90: > 9.9 µM

Compound: CCC(C)NC(=O)c1c(NC(=O)c2cccc(F)c2)nc2ccc(C)cn12 (centres undefined)
- IC50 (FFLUC_HILL_SLOPE 0.281, FFLUC_R_SQUARED 0.0242, HEPG2TOX_HILL_SLOPE 2.05, HEPG2TOX_R_SQUARED 0.911, PBLUC_HILL_SLOPE 3.14, PBLUC_R_SQUARED 0.667, read-out: LUCIFERASE INFECTION ASSAY - IC50): 1.45 µM
- IC90: 2.91 µM

Compound: COc1ccccc1-[n+]1c(C)cc(C=C2Sc3ccc4ccccc4c3N2C)cc1C
- IC50 (HEPG2TOX_HILL_SLOPE 0.863, HEPG2TOX_R_SQUARED 0.853, PBLUC_HILL_SLOPE 2.28, PBLUC_R_SQUARED 0.851, read-out: LUCIFERASE INFECTION ASSAY - IC50): 0.233 µM
- IC90: 0.611 µM

Compound: COc1ccccc1-c1cnc2c(Nc3ccc(NS(=O)(=O)c4ccc(C)cc4)cc3)nccn12
- IC50 [1]: 1.57 µM
- IC90: > 6.8 µM

Compound: Cc1cc(-c2cccc3[nH]c(C(F)(F)F)nc23)nn1C(=O)c1ccc([N+](=O)[O-])cc1
- IC50 (FFLUC_HILL_SLOPE 35.5, FFLUC_R_SQUARED 0.403, HEPG2TOX_HILL_SLOPE 0.192, HEPG2TOX_R_SQUARED 0.301, PBLUC_HILL_SLOPE 13.6, PBLUC_R_SQUARED 0.349, read-out: LUCIFERASE INFECTION ASSAY - IC50): 9.27 µM
- IC90: > 10 µM

Compound: COc1cc(C(=O)Nc2ccc(C(=O)NC3CC3)cc2)cc(Cl)c1OC(C)C
- IC50 (PBLUC_HILL_SLOPE 2.4, PBLUC_R_SQUARED 0.128, read-out: LUCIFERASE INFECTION ASSAY - IC50): 6.06 µM
- IC90: > 10 µM

Compound: CC(Oc1ccc2ccc(=O)oc2c1)C(=O)N1CCc2ccccc21 (centres undefined)
- IC50 (PBLUC_HILL_SLOPE 3.92, PBLUC_R_SQUARED 0.713, read-out: LUCIFERASE INFECTION ASSAY - IC50): 3.58 µM
- IC90: 6.27 µM

Compound: COC(=O)c1ccc(C)c(NC(=O)CCc2ccc3c(c2)OCCO3)c1
- IC50 [1]: > 10 µM
- IC90: > 10 µM

Compound: COc1cccc(-c2cnn3ccc(Nc4cc(OC)c(OC)c(OC)c4)nc23)c1
- IC50 (HEPG2TOX_HILL_SLOPE 6.32, HEPG2TOX_R_SQUARED 0.972, PBLUC_HILL_SLOPE 10.3, PBLUC_R_SQUARED 0.636, read-out: LUCIFERASE INFECTION ASSAY - IC50): 2.7 µM
- IC90: 3.34 µM

Compound: CCCNC(=O)c1c(NC(=O)c2ccc(F)cc2F)nc2ccc(C)cn12
- IC50 (HEPG2TOX_HILL_SLOPE 5.63, HEPG2TOX_R_SQUARED 0.519, PBLUC_HILL_SLOPE 14, PBLUC_R_SQUARED 0.432, read-out: LUCIFERASE INFECTION ASSAY - IC50): 2.99 µM
- IC90: 3.51 µM

Compound: O=C(Nc1ccc(F)cc1)c1cccc(C(=O)Nc2ccc(F)cc2)n1
- IC50 [1]: 3.45 µM
- IC90: 5.69 µM

Compound: CCCC/N=C1\SCC(c2c[nH]c3ccccc23)=NN1C
- IC50 (HEPG2TOX_HILL_SLOPE 0.211, HEPG2TOX_R_SQUARED 0.832, read-out: LUCIFERASE INFECTION ASSAY - IC50): > 10 µM
- IC90: > 10 µM

Compound: N#Cc1ccc(-c2ccc3nnc(-c4cccc(C(F)(F)F)c4)n3c2)cc1
- IC50 (HEPG2TOX_HILL_SLOPE 3.44, HEPG2TOX_R_SQUARED 0.706, PBLUC_HILL_SLOPE 4.37, PBLUC_R_SQUARED 0.179, read-out: LUCIFERASE INFECTION ASSAY - IC50): 4.41 µM
- IC90: 7.29 µM

Compound: COc1ccccc1-c1noc(COC(=O)c2c[nH]nc2-c2ccccc2)n1
- IC50 [1]: > 10 µM
- IC90: > 10 µM

Compound: CC(C)OCCCn1c(S/C=C/c2ccc([N+](=O)[O-])o2)nc2ccccc2c1=O
- IC50 (FFLUC_HILL_SLOPE 0.75, FFLUC_R_SQUARED 0.0694, read-out: LUCIFERASE INFECTION ASSAY - IC50): > 10 µM
- IC90: > 10 µM

Compound: Cc1ccc(Oc2ccc(NC(=O)c3cc(C)on3)cc2)cc1
- IC50 (PBLUC_HILL_SLOPE 2.32, PBLUC_R_SQUARED 0.861, read-out: LUCIFERASE INFECTION ASSAY - IC50): 1.81 µM
- IC90: 4.67 µM

Compound: COc1ccc(-c2cnc(N)c(-c3cccnc3)c2)cc1OC
- IC50 (HEPG2TOX_HILL_SLOPE 1.35, HEPG2TOX_R_SQUARED 0.969, PBLUC_HILL_SLOPE 2.37, PBLUC_R_SQUARED 0.379, read-out: LUCIFERASE INFECTION ASSAY - IC50): 3.85 µM
- IC90: 9.72 µM

Compound: CC(C)(C)C(=O)Nc1ccc(-c2nc3ncccc3o2)c(Cl)c1
- IC50 (FFLUC_HILL_SLOPE 2.53, FFLUC_R_SQUARED 0.8, PBLUC_HILL_SLOPE 0.961, PBLUC_R_SQUARED 0.809, read-out: LUCIFERASE INFECTION ASSAY - IC50): 0.502 µM
- IC90: 4.94 µM

Compound: COc1ccccc1Oc1ccc(S(=O)(=O)N(c2cccnc2)S(=O)(=O)c2ccc(Oc3ccccc3OC)cc2)cc1
- IC50 [1]: > 10 µM
- IC90: > 10 µM

Compound: COc1ccc(C(=O)NNC(=O)c2nn(-c3ccccc3)cc2O)c(OC)c1OC
- IC50 (HEPG2TOX_HILL_SLOPE 0.737, HEPG2TOX_R_SQUARED 0.981, PBLUC_HILL_SLOPE 4.06, PBLUC_R_SQUARED 0.568, read-out: LUCIFERASE INFECTION ASSAY - IC50): 1.61 µM
- IC90: 2.77 µM

Compound: CN1N=C2c3ccccc3CCC2C1c1ccc(Cl)cc1 (centres undefined)
- IC50 (PBLUC_HILL_SLOPE 2.13, PBLUC_R_SQUARED 0.455, read-out: LUCIFERASE INFECTION ASSAY - IC50): 1.42 µM
- IC90: 4 µM

Compound: CCOC(=O)c1c(C)[nH]c(C(=O)COC(=O)c2ccc(CO)cc2)c1C
- IC50 [1]: > 10 µM
- IC90: > 10 µM

Compound: Cc1cc(C(=O)COC(=O)c2ccc3[nH]c4c(c3c2)CCCC4)c(C)n1Cc1ccccc1Cl
- IC50 (PBLUC_HILL_SLOPE 2.26, PBLUC_R_SQUARED 0.534, read-out: LUCIFERASE INFECTION ASSAY - IC50): 1.74 µM
- IC90: 4.61 µM

Compound: CCN1CCC[C@H]1CNC(=O)C(C)c1ccc2c(c1)[nH]c1ccc(Cl)cc12 (some centres undefined)
- IC50 (HEPG2TOX_HILL_SLOPE 11.5, HEPG2TOX_R_SQUARED 0.93, PBLUC_HILL_SLOPE 6.18, PBLUC_R_SQUARED 0.807, read-out: LUCIFERASE INFECTION ASSAY - IC50): 3.88 µM
- IC90: 5.54 µM

Compound: CCOc1ccc(NC(=O)c2ccccc2NC(=O)COC(=O)/C(=C/c2cc(OC)c(OC)c(OC)c2)c2ccc(-c3ccccc3)cc2)cc1
- IC50 (FFLUC_HILL_SLOPE 2.07, FFLUC_R_SQUARED 0.755, PBLUC_HILL_SLOPE 3.07, PBLUC_R_SQUARED 0.285, read-out: LUCIFERASE INFECTION ASSAY - IC50): 6.17 µM
- IC90: > 10 µM

Compound: CC1CCc2nc(/C(C#N)=C/c3ccccc3OC(F)F)sc2C1 (centres undefined)
- IC50 (FFLUC_HILL_SLOPE 11.1, FFLUC_R_SQUARED 0.825, PBLUC_HILL_SLOPE 3.87, PBLUC_R_SQUARED 0.911, read-out: LUCIFERASE INFECTION ASSAY - IC50): 2.22 µM
- IC90: 3.92 µM

Compound: CCOC(=O)c1c(S(=O)(=O)Nc2cccc(C(F)(F)F)c2)c(-c2ccccc2)n(-c2ccccc2)c1C
- IC50 (FFLUC_HILL_SLOPE 40.4, FFLUC_R_SQUARED 0.424, read-out: LUCIFERASE INFECTION ASSAY - IC50): > 6.24 µM
- IC90: > 6.24 µM

Compound: O=C(OCc1cc(=O)oc2cc(O)ccc12)c1c2c(nc3ccccc13)/C(=C/c1ccc([N+](=O)[O-])cc1)CCC2
- IC50 (FFLUC_HILL_SLOPE 2.06, FFLUC_R_SQUARED 0.63, PBLUC_HILL_SLOPE 4.67, PBLUC_R_SQUARED 0.673, read-out: LUCIFERASE INFECTION ASSAY - IC50): 7.7 µM
- IC90: > 10 µM

Compound: Nc1ncc(-c2cc(C(F)(F)F)cc(C(F)(F)F)c2)cc1-c1ccc(O)cc1
- IC50 [1]: > 8.29 µM
- IC90: > 8.29 µM

Compound: Nc1nc2ccc(C(=O)N3CCN(C/C=C/c4ccccc4)CC3)cc2s1
- IC50 (HEPG2TOX_HILL_SLOPE 1.29, HEPG2TOX_R_SQUARED 0.665, PBLUC_HILL_SLOPE 22.8, PBLUC_R_SQUARED 0.0313, read-out: LUCIFERASE INFECTION ASSAY - IC50): > 10 µM
- IC90: > 10 µM

Compound: COCCNc1nc(-c2c(-c3ccccc3)[nH]c3ccccc23)cs1
- IC50 [1]: > 10 µM
- IC90: > 10 µM

Compound: O=C(Nc1ccccc1-c1nc(=O)c2ccccc2[nH]1)C12CC3CC(CC(C3)C1)C2
- IC50 (PBLUC_HILL_SLOPE 7.56, PBLUC_R_SQUARED 0.487, read-out: LUCIFERASE INFECTION ASSAY - IC50): 9.01 µM
- IC90: > 10 µM
